Assays:
YKL-5-124 = compound: C=CC(=O)Nc1ccc(C(=O)Nc2[nH]nc3c2CN(C(=O)N[C@H](CN(C)C)c2ccccc2)C3(C)C)cc1 [YKL-5-124]
Bleomycin = compound: CC1=C(N=C(N=C1N)[C@H](CC(=O)N)NC[C@@H](C(=O)N)N)C(=O)N[C@@H]([C@H](C2=CN=CN2)OC3C(C(C(C(O3)CO)O)O)OC4C(C(C(C(O4)CO)O)OC(=O)N)O)C(=O)N[C@H](C)[C@H]([C@H](C)C(=O)N[C@@H]([C@@H](C)O)C(=O)NCCC5=NC(=CS5)C6=NC(=CS6)C(=O)NCCC[S+](C)C)O [Bleomycin]; details: main component drawn
FMF-03-145-1 = compound: CCC(=O)Nc1ccc(C(=O)Nc2ccc(Nc3ncc4c(n3)N(C)c3ccc(C)cc3C(=O)N4C)cc2)cc1 [FMF-03-145-1]
Topotecan = compound: CC[C@@]1(O)C(=O)OCc2c1cc1n(c2=O)Cc2cc3c(CN(C)C)c(O)ccc3nc2-1 [Topotecan]
Everolimus = compound: CO[C@H]1C[C@@H]2CC[C@@H](C)[C@@](O)(O2)C(=O)C(=O)N2CCCC[C@H]2C(=O)O[C@H]([C@H](C)C[C@@H]2CC[C@@H](OCCO)[C@H](OC)C2)CC(=O)[C@H](C)/C=C(\C)[C@@H](O)[C@@H](OC)C(=O)[C@H](C)C[C@H](C)/C=C/C=C/C=C/1C [Everolimus]
Etoposide = compound: COc1cc([C@@H]2c3cc4c(cc3[C@@H](O[C@@H]3O[C@@H]5CO[C@@H](C)O[C@H]5[C@H](O)[C@H]3O)[C@H]3COC(=O)[C@H]23)OCO4)cc(OC)c1O [Etoposide]
[1] = compound: COc1cccc(OCCCN)c1-c1cc(Nc2cnc(C#N)cn2)n[nH]1
Cisplatin = compound: N.N.Cl[Pt]Cl [Cisplatin]
BSJ-03-123 = compound: CC(=O)c1c(C)c2cnc(Nc3ccc(N4CCN(CCOCCOCCOCCNC(=O)COc5cccc6c5C(=O)N(C5CCC(=O)NC5=O)C6=O)CC4)cn3)nc2n(C2CCCC2)c1=O [BSJ-03-123]; test: GR value, 72 h; higher = faster growth (1 = untreated, <0 = killing);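 also: breast cancer and non-malignant breast epithelial lines, nine half-log doses, viable cells counted by Hoechst and LIVE/DEAD dye imaging versus time-zero plates and DMSO controls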
Neratinib/HKI272 = compound: CCOc1cc2ncc(C#N)c(Nc3ccc(OCc4ccccn4)c(Cl)c3)c2cc1NC(=O)/C=C/CN(C)C [Neratinib/HKI272]; test: as above
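For GR50, 72 h in this document: breast cancer and non-malignant breast epithelial cell lines, Deep Dye Drop or Dye Drop imaging, nine half-log doses, GR normalized to time-zero plates and DMSO-only controls.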

| Cell Line | GR50, 72 h (YKL-5-124) [µM] | GR50, 72 h (Bleomycin) [µM] | GR50, 72 h (FMF-03-145-1) [µM] | GR50, 72 h (Topotecan) [µM] | GR50, 72 h (Everolimus) [µM] | GR50, 72 h (Etoposide) [µM] | GR50, 72 h [1] [µM] | GR50, 72 h (Cisplatin) [µM] | GR value (BSJ-03-123; 0.001 µM) [GR] | GR value (BSJ-03-123; 0.003162 µM) [GR] | GR value (BSJ-03-123; 0.01 µM) [GR] | GR value (BSJ-03-123; 0.03162 µM) [GR] | GR value (BSJ-03-123; 0.1 µM) [GR] | GR value (BSJ-03-123; 0.3162 µM) [GR] | GR value (BSJ-03-123; 1 µM) [GR] | GR value (BSJ-03-123; 3.162 µM) [GR] | GR value (BSJ-03-123; 10 µM) [GR] | GR value (Neratinib/HKI272; 0.0003162 µM) [GR] | GR value (Neratinib/HKI272; 0.001 µM) [GR] | GR value (Neratinib/HKI272; 0.003162 µM) [GR] | GR value (Neratinib/HKI272; 0.01 µM) [GR] | GR value (Neratinib/HKI272; 0.03162 µM) [GR] | GR value (Neratinib/HKI272; 0.1 µM) [GR] | GR value (Neratinib/HKI272; 0.3162 µM) [GR] | GR value (Neratinib/HKI272; 1 µM) [GR] | GR value (Neratinib/HKI272; 3.162 µM) [GR] |
| --- | --- | --- | --- | --- | --- | --- | --- | --- | --- | --- | --- | --- | --- | --- | --- | --- | --- | --- | --- | --- | --- | --- | --- | --- | --- | --- |
| CAL51 | 0.00889 | 0.169 | 0.00666 | 0.0191 | > 10 | 0.24 | 0.000588 | 2.1 | 0.894 | 0.912 | 0.915 | 0.898 | 0.895 | 0.818 | 0.763 | 0.76 | 0.121 | 0.983 | 1 | 0.938 | 1.01 | 1 | 0.975 | 0.94 | 0.833 | 0.293 |
| CAL120 | 0.00898 | 1.69 | 0.00643 | 0.00749 | > 10 | 0.48 | 0.000952 | 2.93 | 0.923 | 0.923 | 0.969 | 0.906 | 0.861 | 0.9 | 0.755 | 0.759 | 0.234 | 0.996 | 1.03 | 0.97 | 0.973 | 0.999 | 0.876 | 0.618 | 0.355 | -0.262 |

Reference: the supplement of paper PMC9663587
